Patent US9351965B2, “Indazole derivatives useful as ERK inhibitors” (Merck Sharp & Dohme Corp., priority 2010, dated 2016)
pIC50: −log10 of the molar value.

target: fully phosphorylated, active Mouse ERK2 protein (Mus musculus (Mouse), UniProt P63085); assay: Active ERK2 (aERK) IMAP assay; type: biochemical; details: IMAP fluorescence polarization; 30 μM ATP; 30 minute pre-incubation
Description: 14 μl of kinase buffer (10 mM Tris.HCl pH 7.2, 10 mM MgCl2, 0.01% Tween-20, 1 mM DTT) containing 0.4 ng unphosphorylated Mouse ERK2 protein was added to each well of a black 384-well assay plate. […] DMSO concentration during initial incubation is 6.7%. […] DMSO concentration during ERK activation was 4%. After one hour, reactions were terminated by addition of 60 μl IMAP detections beads in binding buffer (Molecular Devices). Binding was allowed to equilibrate for 30 minutes before reading the plate on an LJL Analyst Fluorescence Polarization plate reader.
Active ERK2 (aERK) Assay:
Activated ERK2 activity was also determined in the IMAP assay format using the procedure outlined above. […] Reactions proceeded for 30 minutes before termination by addition of 60 μl IMAP detection beads in binding buffer. Plates were read as above after 30 minute binding equilibration.

Sequence of fully phosphorylated, active Mouse ERK2 protein (P63085 whole entry): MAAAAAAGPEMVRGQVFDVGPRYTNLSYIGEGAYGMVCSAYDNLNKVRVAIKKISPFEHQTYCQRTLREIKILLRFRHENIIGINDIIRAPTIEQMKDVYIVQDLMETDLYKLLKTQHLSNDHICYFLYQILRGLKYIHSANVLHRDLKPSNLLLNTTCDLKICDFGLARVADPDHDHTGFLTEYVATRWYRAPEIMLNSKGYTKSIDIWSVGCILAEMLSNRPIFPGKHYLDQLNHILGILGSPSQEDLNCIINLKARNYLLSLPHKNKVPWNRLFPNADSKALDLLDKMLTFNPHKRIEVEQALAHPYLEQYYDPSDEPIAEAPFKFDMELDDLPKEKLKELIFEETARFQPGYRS

| SMILES | pIC50 |
| --- | --- |
| Cc1cc(-c2n[nH]c3ccc(C(=O)NC4CCCC(Cn5cc6cc(F)ccc6n5)C4)cc23)ccn1 (mixture of isomers) [compound 124, N-[cis/trans-3-[(5-fluoro-2H-indazol-2-yl)methyl]cyclohexyl]-3-(2-methyl-4-pyridinyl)-1H-indazole-5-carboxamide] | 6.58 |
| Cc1cc(-c2n[nH]c3ccc(C(=O)NC4CCCC(Cn5ncc6ccc(C(F)(F)F)cc65)C4)cc23)ccn1 (mixture of isomers) [compound 125, 3-(2-methyl-4-pyridinyl)-N-[cis/trans-3-[[6-(trifluoromethyl)-1H-indazol-1-yl]methyl]cyclohexyl]-1H-indazole-5-carboxamide] | 6.00 |
| Cc1cc(-c2n[nH]c3ccc(C(=O)NC4CCCC(Cn5ncc6cccc(F)c65)C4)cc23)ccn1 (mixture of isomers) [compound 126, N-[cis/trans-3-[(7-fluoro-1H-indazol-1-yl)methyl]cyclohexyl]-3-(2-methyl-4-pyridinyl)-1H-indazole-5-carboxamide] | 7.25 |
| CCOC(=O)C1(Cc2ccccc2F)CCCC(NC(=O)c2ccc3[nH]nc(-c4ccnc(C)c4)c3c2)C1 (mixture of isomers) [compound 128, ethyl cis/trans-1-[(2-fluorophenyl)methyl]-3-[[[3-(2-methyl-4-pyridinyl)-1H-indazol-5-yl]carbonyl]amino]cyclo-hexanecarboxylate] | 6.00 |
| Cc1cc(-c2n[nH]c3ccc(C(=O)NC4CCCC(CO)(Cc5ccccc5F)C4)cc23)ccn1 (mixture of isomers) [compound 130, N-[cis/trans-3-[(2-fluorophenyl)methyl]-3-(hydroxymethyl)cyclohexyl]-3-(2-methyl-4-pyridinyl)-1H-indazole-5-carboxamide] | 6.00 |
| Cc1cc(-c2n[nH]c3ccc(C(=O)NC4CCCC(Cc5ccccc5F)(C(=O)O)C4)cc23)ccn1 (mixture of isomers) [compound 131, cis/trans-1-[(2-fluorophenyl)methyl]-3-[[[3-(2-methyl-4-pyridinyl)-1H-indazol-5-yl]carbonyl]amino]cyclo-hexanecarboxylic acid] | 6.00 |
| Cc1cc(-c2n[nH]c3ccc(C(=O)NC4CCCC(F)(Cc5ccccc5F)C4)cc23)ccn1 (racemic) [compound 54, N-[3-fluoro-3-[(2-fluorophenyl)methyl]cyclohexyl]-3-(2-methyl-4-pyridinyl)-1H-indazole-5-carboxamide (racemic)] | 6.00 |
| O=C(N[C@H]1CCC[C@@](O)(Cc2ccccc2F)C1)c1ccc2[nH]nc(-c3ccc4nccn4c3)c2c1 (relative stereo) [compound 9, N-[trans-3-[(2-fluorophenyl)methyl]-3-hydroxycyclohexyl]-3-imidazo[1,2-a]pyridin-6-yl-1H-indazole-5-carboxamide] | 7.31 |
| Cn1cc2cc(-c3n[nH]c4ccc(C(=O)N[C@@H]5CCC[C@@](O)(Cn6ccnc6)C5)cc34)ccc2n1 (relative stereo) [compound 57, N-[cis-3-hydroxy-3-(1H-imidazol-1-ylmethyl)cyclohexyl]-3-(2-methyl-2H-indazol-5-yl)-1H-indazole-5-carboxamide] | 7.42 |
| Cn1cc2cc(-c3n[nH]c4ccc(C(=O)N[C@@H]5CCC[C@](O)(Cn6ccnc6)C5)cc34)ccc2n1 (relative stereo) [compound 58, N-[trans-3-hydroxy-3-(1H-imidazol-1-ylmethyl)cyclohexyl]-3-(2-methyl-2H-indazol-5-yl)-1H-indazole-5-carboxamide] | 7.21 |
| Cn1cc2cc(-c3n[nH]c4ccc(C(=O)N[C@@H]5CCC[C@](O)(Cn6cccn6)C5)cc34)ccc2n1 (relative stereo) [compound 59, N-[trans-3-hydroxy-3-(1H-pyrazol-1-ylmethyl)cyclohexyl]-3-(2-methyl-2H-indazol-5-yl)-1H-indazole-5-carboxamide] | 7.17 |
| Cn1cc2cc(-c3n[nH]c4ccc(C(=O)N[C@@H]5CCC[C@@](O)(Cn6cccn6)C5)cc34)ccc2n1 (relative stereo) [compound 60, N-[cis-3-hydroxy-3-(1H-pyrazol-1-ylmethyl)cyclohexyl]-3-(2-methyl-2H-indazol-5-yl)-1H-indazole-5-carboxamide] | 6.82 |
| Cn1cc2cc(-c3n[nH]c4ccc(C(=O)N[C@@H]5CCC[C@](O)(Cn6cnc7ccccc76)C5)cc34)ccc2n1 (relative stereo) [compound 61, N-[trans-3-(1H-benzimidazol-1-ylmethyl)-3-hydroxycyclohexyl]-3-(2-methyl-2H-indazol-5-yl)-1H-indazole-5-carboxamide] | 7.71 |
| Cn1cc2cc(-c3n[nH]c4ccc(C(=O)N[C@@H]5CCC[C@@](O)(Cn6cnc7ccccc76)C5)cc34)ccc2n1 (relative stereo) [compound 62, N-[cis-3-(1H-benzimidazol-1-ylmethyl)-3-hydroxycyclohexyl]-3-(2-methyl-2H-indazol-5-yl)-1H-indazole-5-carboxamide] | 7.70 |
| Cc1cc(-c2n[nH]c3ccc(C(=O)N[C@@H]4CCC[C@](O)(Cn5cncn5)C4)cc23)ccn1 (relative stereo) [compound 63, N-[trans-3-hydroxy-3-(1H-1,2,4-triazol-1-ylmethyl)cyclohexyl]-3-(2-methyl-4-pyridinyl)-1H-indazole-5-carboxamide] | 6.71 |
| Cc1cc(-c2n[nH]c3ccc(C(=O)N[C@@H]4CCC[C@@](O)(Cn5cncn5)C4)cc23)ccn1 (relative stereo) [compound 64, N-[cis-3-hydroxy-3-(1H-1,2,4-triazol-1-ylmethyl)cyclohexyl]-3-(2-methyl-4-pyridinyl)-1H-indazole-5-carboxamide] | 7.00 |
| Cc1cc(-c2n[nH]c3ccc(C(=O)N[C@@H]4CCC[C@](O)(Cn5c(C(F)(F)F)nc6ccccc65)C4)cc23)ccn1 (relative stereo) [compound 67, N-[trans-3-hydroxy-3-[[2-(trifluoromethyl)-1H-benzimidazol-1-yl]methyl]cyclohexyl]-3-(2-methyl-4-pyridinyl)-1H-indazole-5-carboxamide] | 6.36 |
| Cc1cc(-c2n[nH]c3ccc(C(=O)N[C@@H]4CCC[C@](O)(Cn5cnc6ncccc65)C4)cc23)ccn1 (relative stereo) [compound 71, N-[trans-3-hydroxy-3-(1H-imidazo[4,5-b]pyridin-1-ylmethyl)cyclohexyl]-3-(2-methyl-4-pyridinyl)-1H-indazole-5-carboxamide] | 6.33 |
| Cc1cc(-c2n[nH]c3ccc(C(=O)N[C@@H]4CCC[C@](O)(Cn5cnc6cccnc65)C4)cc23)ccn1 (relative stereo) [compound 72, N-[trans-3-hydroxy-3-(3H-imidazo[4,5-b]pyridin-3-ylmethyl)cyclohexyl]-3-(2-methyl-4-pyridinyl)-1H-indazole-5-carboxamide] | 6.27 |
| Cc1cc(-c2n[nH]c3ccc(C(=O)N[C@@H]4CCC[C@](O)(Cn5cc6cccnc6n5)C4)cc23)ccn1 (relative stereo) [compound 73, N-[trans-3-hydroxy-3-(2H-pyrazolo[3,4-b]pyridin-2-ylmethyl)cyclohexyl]-3-(2-methyl-4-pyridinyl)-1H-indazole-5-carboxamide] | 6.21 |
| Cc1cc(-c2n[nH]c3ccc(C(=O)N[C@@H]4CCC[C@](O)(Cn5ncc6ccncc65)C4)cc23)ccn1 (relative stereo) [compound 74, N-[trans-3-hydroxy-3-(1H-pyrazolo[3,4-c]pyridin-1-ylmethyl)cyclohexyl]-3-(2-methyl-4-pyridinyl)-1H-indazole-5-carboxamide] | 6.10 |
| Cc1cc(-c2n[nH]c3ccc(C(=O)N[C@@H]4CCC[C@](O)(Cn5c(C)nc6cnccc65)C4)cc23)ccn1 (relative stereo) [compound 76, N-[trans-3-hydroxy-3-[(2-methyl-1H-imidazo[4,5-c]pyridin-1-yl)methyl]cyclohexyl]-3-(2-methyl-4-pyridinyl)-1H-indazole-5-carboxamide] | 6.87 |
| Cc1cc(-c2n[nH]c3ccc(C(=O)N[C@@H]4CCC[C@@](O)(Cn5c(C)nc6cnccc65)C4)cc23)ccn1 (relative stereo) [compound 77, N-[cis-3-hydroxy-3-[(2-methyl-1H-imidazo[4,5-c]pyridiN-1-yl)methyl]cyclohexyl]-3-(2-methyl-4-pyridinyl)-1H-indazole-5-carboxamide] | 6.00 |
| Cc1cc(-c2n[nH]c3ccc(C(=O)N[C@@H]4CCC[C@@](O)(Cn5cc6cccnc6n5)C4)cc23)ccn1 (relative stereo) [compound 78, N-[cis-3-hydroxy-3-(2H-pyrazolo[3,4-b]pyridin-2-ylmethyl)cyclohexyl]-3-(2-methyl-4-pyridinyl)-1H-indazole-5-carboxamide] | 6.23 |
| Cc1cc(-c2n[nH]c3ccc(C(=O)N[C@@H]4CCC[C@@](O)(Cn5ncc6cccnc65)C4)cc23)ccn1 (relative stereo) [compound 79, N-[cis-3-hydroxy-3-(1H-pyrazolo[3,4-b]pyridin-1-ylmethyl)cyclohexyl]-3-(2-methyl-4-pyridinyl)-1H-indazole-5-carboxamide] | 8.07 |
| Cc1cc(-c2n[nH]c3ccc(C(=O)N[C@@H]4CCC[C@@](O)(Cn5ncc6ccncc65)C4)cc23)ccn1 (relative stereo) [compound 80, N-[cis-3-hydroxy-3-(1H-pyrazolo[3,4-c]pyridin-1-ylmethyl)cyclohexyl]-3-(2-methyl-4-pyridinyl)-1H-indazole-5-carboxamide] | 7.45 |
